# Assays:
# [1] = tested on: BrdU-positive cells in the hippocampus; assay: Histology: BrdU positive cells in hippocampus of aged mice; assay type: in vivo, C57Bl/6 mice
# Description: For fluorescent microscopy, the following antibodies were used in the given concentrations: GFAP, 1:500, DAKO; Iba1, 1:1000, Wako; and BrdU, 1:500, AbCam. Antigen retrieval protocol was required for BrdU (2N HCl, 37 C, 30 min) prior to blocking. The appropriate fluorescent secondary antibodies were applied the next day at a concentration of 1:300 for one hour at room temperature. Prolong Gold Mounting Media was used to coverslip the slides. Images were acquired on a light microscope at 5× magnification.
# Two-month-old or 18-month-old C57Bl/6 mice were dosed with either IgG antibody control by IP injection or Compound 1 subcutaneously by Alzet osmotic pump for either 2 or 4 weeks. During the last week of treatment, mice were subjected to behavior testing prior to perfusion on the last day of treatment. All mice received 5 consecutive days of BrdU injection at 150 mg/kg IP immediately prior to treatment start. […]
# [2] = tested on: two-month-old C57Bl/6 mice treated with rmCCL11; assay: Open Field test in young mice given recombinant mouse CCL11; assay type: in vivo; conditions: 2-month-old mice; rmCCL11 i.p.; Compound 1 30 mg/kg p.o. b.i.d., 2 weeks
# Description: Open Field is used to evaluate general locomotor activity and exploratory behavior in a novel environment. Mice are brought to the experimental room for at least 30 min for acclimation to the experimental room conditions (dim lighting) prior to testing. The testing arena consists of a 50 cm×50 cm square arena. Mice are placed in the center of an arena and tracked for 15 minutes. Time spent in the peripheral and centers zones is analyzed, along with rearing behavior. 70% ethanol is used to clean all surfaces between trials.
# […] During the last week of treatment, mice were subjected to behavior testing prior to perfusion on the last day of treatment. All mice received 5 consecutive days of BrdU injection at 150 mg/kg IP immediately prior to treatment start. […]
# [3] = tested on: twenty-four-month-old C57 mice; assay: Rotarod test for motor coordination in aged mice; assay type: in vivo; conditions: 4 weeks continuous infusion by osmotic pump
# Description: The mice were trained in the rotarod for 3 trials up to 100 seconds each, the rotarod being a test of motor coordination. Success or failure was recorded on the last trial, with success defined by a latency to fall of >90 seconds. A binomial test was conducted to compare success rates between control and compound-treated mice.
# Twenty-four-month-old C57 mice were treated for 4 weeks with continuous infusion of Compound 1 or vehicle by Alzet osmotic pump, which were implanted to continuously deliver the two treatments.
# Treatment Groups: • Treatment Group 1, Old Controls: Aged C57BL/6 mice (n=15), aged 23 months, received infusion of vehicle by Alzet mini-pump, model 2002 (0.5 uL/hr), for four weeks with one replacement. • Treatment Group 2, Compound 1 (dose 2) in Old: Aged C57BL/6 mice (n=15), aged 23 months, received infusion of ˜50 mg/ml Compound 1 by Alzet mini-pump, model 2002 (0.5 uL/hr), for four weeks with one replacement.
structure (smiles),measurement,setting,value
Cc1cc(C(=O)N(C)C)cc(NC(=O)[C@H]2CCC(=O)N2C2CCN(Cc3ccc(Cl)c(C)c3)CC2)n1 [Compound 1],BrdU-positive cells in the hippocampus,"[1]; 16.5-month-old mice, four-week dosing by pump",significantly increased the number of BrdU-positive cells
same,BrdU-positive cells in the hippocampus,"[1]; 18-month-old mice, higher dosing for 2 weeks by pump",trend in increased BrdU-positive cells
same,anxiety in the Open Field,[2],improved anxiety
same,proportion of mice able to stay on the rod for longer than 90 seconds,[3]; control 20%,47%
same,Rotarod success versus vehicle (binomial test),[3]; success = latency to fall >90 seconds,succeeded more than vehicle-treated mice

# Reference: patent US11382907B2, “Methods and compositions for treating aging-associated impairments using CCR3-inhibitors” (Alkahest, Inc., priority 2017, dated 2022)
